From patent US6214805A, “RNase L activators and antisense oligonucleotides effective to treat RSV infections” (priority 1997, dated 2001)

Key:
[1] = system: RSV strain A2; assay: Neutral red uptake assay of CPE inhibition in HEp-2 cells; assay type: cell-based, Respiratory syncytial virus; conditions: for EC50: human respiratory syncytial virus
Protocol: (§1) This assay was performed by a modified method as described by Cavenaugh et al. (Cavenaugh et al. 1990, Invest. New Drugs 8:347-354). Briefly, medium was removed from each well of a plate scored for CPE from a CPE inhibition assay, 0.2 ml of neutral red (0.034% in PSS) was added to each of the wells of that plate and the plate incubated for 2 hr at 37° C. in the dark. The neutral red solution was removed from the wells and the wells rinsed twice with PBS (pH 7.4). Equal volumes (0.1 ml) of absolute ethanol and Sorenson citrate buffer (0.1 M sodium citrate, 0.1 M HCI, pH 4.2) were mixed together and added to each well. Plates were incubated in the dark for 30 min. at room temperature to solubilize the dye. The plates were then gently mixed on a 96-well plate adapted vortexer for 1 min. Absorbances at 540 nm and 450 nm were read with a microplate reader (Bio-Tek EL 1309; Bio-Tek Instruments, Inc. Winooski, Vt.). Absorbance values were expressed as percents of untreated controls and EC50 and IC50 values were calculated by regression analysis.

[2] = system: Hep-2 Cells; assay: Cytotoxicity to Hep-2 cells (visual and dye uptake, rapidly dividing cells); assay type: cell-based, human; conditions: Homo sapiens
Source text: A comparison of the efficacies of spA4 -antiRSV3'3'T/(8281-8299) treatment and conventional ribarvirin treatment can be obtained by determining the RSV-inhibitory concentration and the cytotoxic concentration of each compound. Cultures of the human laryngeal carcinoma cell line HEp-2 and the […] renal cell line MA-104 were established and infected with an MOI=0.005. Cultures were fed twice daily. Treatment with either ribavirin or spA4 -antiRSV3'3'T/(8281-8299) was begun simultaneously with infection and continued for four days. Treatment was then withdrawn and the test read on day 5. The effects of treatment on RSV infection were reported as 1) an EC50, the concentration at which there was a 50% reduction in the observable cytopathic effects of infection and 2) an EC90, the concentration at which there was a 90% reduction in viral production. […] Therapeutic efficacy is estimated by the Selectivity Index, which is the ratio of IC50 /EC50.
IC50 50% inhibitory concentration for cytotoxicity to cells (visual

[3] = system: RSV CH18537 (B); assay: Neutral red uptake assay in HEp-2 cells, RSV strain CH18537; assay type: cell-based, Respiratory syncytial virus; conditions: Table 12, neutral red
Protocol: as §1
(§2) In this series, MP351 was added once a day for two days with fresh medium

[4] = system: Hep-2 Cells; assay: Neutral red uptake assay of cytotoxicity in HEp-2 cells; assay type: cell-based, human; conditions: Homo sapiens
Protocol: Embryonic African green monkey kidney cells (MA-104) were obtained from BioWhittaker, Inc. (Walkersville, Md.). HEp-2 cells were propagated from a human epidermoid carcinoma of the larynx (American Type Culture Collection, ATCC; Rockville, Md.). The cells were grown in minimal essential medium. (MEM, Gibco-BRL, Gaitherburg, Md.) supplemented with 0.1% NaHCO3 and 10% fetal bovine serum (FBS, Hyclone Laboratories, Logan Utah.). When performing antiviral assays, serum was reduced to 2% and 50 μg/ml gentamicin (Sigma Chemical Company, St. Louis, Mo.) was added to the medium.
as §1

[5] = system: RSV strain A2; assay: CPE inhibition assay in HEp-2 cells; assay type: cell-based, Respiratory syncytial virus; conditions: for EC50: human respiratory syncytial virus
Protocol: The CPE inhibition assay used in this study was performed as described by Sidwell and Huffman (Sidwell et al., 1971, Appl. Microbiol. 22:7979-7801) with slight modifications. Varying concentrations of test compounds were added to each plate containing near confluent cell monolayers (1×10^5 cells/well) followed immediately by the addition of virus at a multiplicity of infection (MOI)=0.01, and then incubated at 37° C. […] All compounds were assayed for virus inhibition in quadruplicate and for cytotoxicity in duplicate. For each compound, two wells were set aside as uninfected, untreated cell controls per test and four wells per test received virus only and represented controls for virus replication. […] For all CPE-based assays, the 50% effective concentration (EC50) was calculated by regression analysis using the means of the CPE ratings at each concentration of compound.

[6] = system: RSV 393 (clinical isolate); assay: CPE inhibition assay in HEp-2 cells, RSV 393; assay type: cell-based, Respiratory syncytial virus; conditions: Table 12, CPE
Protocol: The CPE inhibition assay used in this study was performed as described by Sidwell and Huffman (Sidwell et al., 1971, Appl. Microbiol. 22:7979-7801) with slight modifications. Varying concentrations of test compounds were added to each plate containing near confluent cell monolayers (1×10^5 cells/well) followed immediately by the addition of virus at a multiplicity of infection (MOI)=0.01, and then incubated at 37° C. On the following day, the medium from each plate was removed and fresh compound added. The assay was stopped at the end of the sixth day when the virus cytopathic effect in the virus infected, untreated control cells affected all cells. All compounds were assayed for virus inhibition in quadruplicate and for cytotoxicity in duplicate. For each compound, two wells were set aside as uninfected, untreated cell controls per test and four wells per test received virus only and represented controls for virus replication. […] For all CPE-based assays, the 50% effective concentration (EC50) was calculated by regression analysis using the means of the CPE ratings at each concentration of compound.
as §2

[7] = HEp-2, 24 h, Table 11, neutral red, q.d. 1 day (added along with virus, never replenished), HEp2
[8] = HEp-2, 48 h, Table 11, neutral red, B.I.D. 2 days, HEp2
[9] = human respiratory syncytial virus, 48 h, once a day for two days

NC(=O)c1ncn([C@@H]2O[C@H](CO)[C@@H](O)[C@H]2O)n1 [Ribavirin]
SI ([1]; Table 11, neutral red, B.I.D. 2 days, HEp2): 130
SI ([1]; Table 11, neutral red, B.I.D. 3 days, HEp2): > 175
SI ([1]; Table 11, neutral red, B.I.D. 4 days, HEp2): 75
SI ([1]; Table 11, neutral red, q.d. 1 day (added along with virus, never replenished), HEp2): > 120
SI ([1]; Table 11, neutral red, q.d. 3 days, HEp2): 126
SI ([1]; Table 11, neutral red, q.d. 4 days, HEp2): 36
SI ([1]; Table 13, neutral red, q.d., Day 0, HEp-2): 27
SI ([1]; Table 13, neutral red, q.d., Day 1, HEp-2): 28
SI ([1]; Table 13, neutral red, q.d., Day 2, HEp-2): 80
EC50 ([1]; HEp-2, 0 h, Table 13, neutral red, q.d., Day 0 (added immediately after virus exposure), HEp-2): 12 µM
EC50 [1, 7]: 4 µM
EC50 ([1]; HEp-2, 24 h, Table 13, neutral red, q.d., fresh compound up to Day 1 post infection, HEp-2): 40 µM
EC50 [1, 8]: 8 µM
EC50 ([1]; HEp-2, 48 h, Table 13, neutral red, q.d., fresh compound up to Day 2 post infection, HEp-2, read-out: EC50): 4 µM
EC50 ([1]; HEp-2, 72 h, Table 11, neutral red, B.I.D. 3 days, HEp2, read-out: EC50): < 4 µM
EC50 ([1]; HEp-2, 72 h, Table 11, neutral red, q.d. 3 days, HEp2, read-out: EC50): 8 µM
EC50 ([1]; HEp-2, 96 h, Table 11, neutral red, B.I.D. 4 days, HEp2, read-out: EC50): 8 µM
EC50 ([1]; HEp-2, 96 h, Table 11, neutral red, q.d. 4 days, HEp2, read-out: EC50): 20 µM
IC50 [2]: 41 µM
SI [3]: 19
EC50 [3, 9]: 12 µM
IC50 ([4]; HEp-2, 0 h, Table 13, neutral red, q.d., Day 0, HEp-2): 328 µM
IC50 [4, 7]: 480 µM
IC50 ([4]; HEp-2, 24 h, Table 13, neutral red, q.d., Day 1, HEp-2): 1130 µM
IC50 [4, 8]: 1050 µM
IC50 ([4]; HEp-2, 48 h, Table 13, neutral red, q.d., Day 2, HEp-2): 320 µM
IC50 ([4]; HEp-2, 72 h, Table 11, neutral red, B.I.D. 3 days, HEp2): 700 µM
IC50 ([4]; HEp-2, 72 h, Table 11, neutral red, q.d. 3 days, HEp2): 1010 µM
IC50 ([4]; HEp-2, 96 h, Table 11, neutral red, B.I.D. 4 days, HEp2): 600 µM
IC50 ([4]; HEp-2, 96 h, Table 11, neutral red, q.d. 4 days, HEp2): 730 µM
IC50 ([4]; HEp-2, Table 12, neutral red, test with 393 (clinical isolate), HEp-2): 96 µM
IC50 ([4]; HEp-2, Table 12, neutral red, test with CH18537 (B), HEp-2): 233 µM
IC50 ([4]; HEp-2, Table 12, neutral red, test with Long (A), HEp-2): 280 µM
SI ([5]; Table 10, CPE, B.I.D. 2 days, HEp2): > 57
SI ([5]; Table 10, CPE, B.I.D. 3 days, HEp2): > 180
SI ([5]; Table 10, CPE, B.I.D. 4 days, HEp2): 57
SI ([5]; Table 10, CPE, q.d. 1 day (added along with virus, never replenished), HEp2): 57
SI ([5]; Table 10, CPE, q.d. 3 days, HEp2): > 57
SI ([5]; Table 10, CPE, q.d. 4 days, HEp2): > 57
SI ([5]; Table 13, CPE, q.d., Day 0, HEp-2): 30
SI ([5]; Table 13, CPE, q.d., Day 1, HEp-2): 8
SI ([5]; Table 13, CPE, q.d., Day 2, HEp-2): 80
EC50 ([5]; HEp-2, 0 h, Table 13, CPE, q.d., Day 0 (added immediately after virus exposure), HEp-2): 12 µM
EC50 ([5]; HEp-2, 24 h, Table 10, CPE, q.d. 1 day (added along with virus, never replenished), HEp2): 4 µM
EC50 ([5]; HEp-2, 24 h, Table 13, CPE, q.d., fresh compound up to Day 1 post infection, HEp-2): 4 µM
EC50 ([5]; HEp-2, 48 h, Table 10, CPE, B.I.D. 2 days, HEp2, read-out: EC50): < 4 µM
EC50 ([5]; HEp-2, 48 h, Table 13, CPE, q.d., fresh compound up to Day 2 post infection, HEp-2, read-out: EC50): 4 µM
EC50 ([5]; HEp-2, 72 h, Table 10, CPE, B.I.D. 3 days, HEp2, read-out: EC50): < 4 µM
EC50 ([5]; HEp-2, 72 h, Table 10, CPE, q.d. 3 days, HEp2, read-out: EC50): < 4 µM
EC50 ([5]; HEp-2, 96 h, Table 10, CPE, B.I.D. 4 days, HEp2, read-out: EC50): 4 µM
EC50 ([5]; HEp-2, 96 h, Table 10, CPE, q.d. 4 days, HEp2, read-out: EC50): < 4 µM
SI [6]: 24
EC50 [6, 9]: 4 µM
